Legend:
Pseudomonas aeruginosa = conditions: Document 1: Drug of the Future, 1996, 21(4): 361-365; cited from earlier work
[1] = Solubility of starting compound 1 in organic solvents; type: physicochemical
Source text: The process described in Document 3 (Kohichi Hirai, Hiroshi Maruyama, Journal of Synthetic Organic Chemistry, Japan, 57, 383 (1999)) is the one for implementing such a procedure wherein a side chain part including amine is first condensed with parent derived from azetidinone, then, an active ester is introduced into the condensate, and thereafter, the resulting product is subjected to ring-closing reaction to form a lactam ring. However, a compound into which an active ester has been already introduced, p-nitrobenzyl(1R,5S,6S)-2-diphenoxyphosphoryloxy-6-[(R)-1-hydroxyethyl]-1-methyl-1-carbapen-2-em-3-carboxylate (starting compound 1) is industrially available recently at an affordable price as a starting material for parent of carbapenem, so that the starting material has been replaced by the above-described compound. However, solubility of the starting compound 1 is high in a high boiling point solvent such as dimethylformamide and dimethylsulfoxide, while it is low in a solvent having a low boiling point such as tetrahydrofuran and acetonitrile, as well as in aromatic solvents such as toluene (see the following Table 1). Under the circumstances, when a high boiling point solvent is used, a difficulty in industrial level arises in case of removing the high boiling point solvent as described later in detail. For this reason, there are many cases wherein the above-described starting compound 1 cannot be applied to the process of Document 3.

## C[C@@H](O)[C@H]1C(=O)N2C(C(=O)O)=C(S[C@@H]3CN[C@H]([C@H](O)[C@@H]4CCNC4)C3)[C@H](C)[C@H]12
Pseudomonas aeruginosa
  antimicrobial action: excellent antimicrobial action

## C[C@@H](O)[C@H]1C(=O)N2C(C(=O)OCc3ccc([N+](=O)[O-])cc3)=C(OP(=O)(Oc3ccccc3)Oc3ccccc3)[C@H](C)[C@@H]12 [p-nitrobenzyl(1R,5S,6S)-2-diphenoxyphosphoryloxy-6-[(R)-1-hydroxyethyl]-1-methyl-1-carbapen-2-em-3-carboxylate]
[1]; Acetonitrile, at 20° C., solvent volume per 0.1 g
  Solubility: 0.6 ML/0.1 g
[1]; Dimethylformamide, at 20° C., solvent volume per 0.1 g
  Solubility: <0.1 ML/0.1 g
[1]; Methylsulfoxide, at 20° C., solvent volume per 0.1 g
  Solubility: <0.1 ML/0.1 g
[1]; Tetrahydrofuran, at 20° C., solvent volume per 0.1 g
  Solubility: 0.6 ML/0.1 g
[1]; Toluene, at 20° C., solvent volume per 0.1 g
  Solubility: >10 ML/0.1 g
[1]; in a high boiling point solvent such as dimethylformamide and dimethylsulfoxide
  Solubility: high
[1]; in a low boiling point solvent such as tetrahydrofuran and acetonitrile, and aromatic solvents such as toluene
  Solubility: low

From patent US20040198973A1, “Process for preparation of carbapenem antibiotics” (priority 2001, published 2004)
